Measured values as given in patent publication US9776997B2, “3-aryl-substituted imidazo[1,2-A]pyridines and their use” (Bayer Pharma Aktiengesellschaft, priority 2013, dated 2017).
Where a name gives a salt, the structure may show the parent alone.

Biological target: T1, recombinant guanylate cyclase reporter cell line (Rattus norvegicus, UniProt P19686+P20595)
T1 construct: expressed in transfected cells; host or cells: recombinant reporter cell line
T1 sequence (P19686 1-690): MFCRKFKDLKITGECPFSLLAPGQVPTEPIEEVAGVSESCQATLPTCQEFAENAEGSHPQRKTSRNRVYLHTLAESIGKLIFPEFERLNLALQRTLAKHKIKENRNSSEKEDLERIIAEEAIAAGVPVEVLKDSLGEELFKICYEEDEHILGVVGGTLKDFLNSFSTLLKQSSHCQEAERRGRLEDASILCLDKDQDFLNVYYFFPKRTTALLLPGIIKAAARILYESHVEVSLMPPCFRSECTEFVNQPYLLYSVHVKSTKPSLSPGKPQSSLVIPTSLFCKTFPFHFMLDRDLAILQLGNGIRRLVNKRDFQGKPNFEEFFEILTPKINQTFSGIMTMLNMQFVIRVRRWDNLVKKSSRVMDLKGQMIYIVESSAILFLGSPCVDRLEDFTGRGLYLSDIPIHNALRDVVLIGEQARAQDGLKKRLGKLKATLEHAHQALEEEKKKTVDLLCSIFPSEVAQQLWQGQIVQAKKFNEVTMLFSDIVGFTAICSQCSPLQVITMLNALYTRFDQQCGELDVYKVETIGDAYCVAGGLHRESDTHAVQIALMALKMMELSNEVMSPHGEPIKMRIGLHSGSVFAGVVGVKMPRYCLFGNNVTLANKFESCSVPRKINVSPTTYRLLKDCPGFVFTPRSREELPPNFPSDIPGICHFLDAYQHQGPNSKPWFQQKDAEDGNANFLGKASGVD
T1 sequence (P20595 1-619): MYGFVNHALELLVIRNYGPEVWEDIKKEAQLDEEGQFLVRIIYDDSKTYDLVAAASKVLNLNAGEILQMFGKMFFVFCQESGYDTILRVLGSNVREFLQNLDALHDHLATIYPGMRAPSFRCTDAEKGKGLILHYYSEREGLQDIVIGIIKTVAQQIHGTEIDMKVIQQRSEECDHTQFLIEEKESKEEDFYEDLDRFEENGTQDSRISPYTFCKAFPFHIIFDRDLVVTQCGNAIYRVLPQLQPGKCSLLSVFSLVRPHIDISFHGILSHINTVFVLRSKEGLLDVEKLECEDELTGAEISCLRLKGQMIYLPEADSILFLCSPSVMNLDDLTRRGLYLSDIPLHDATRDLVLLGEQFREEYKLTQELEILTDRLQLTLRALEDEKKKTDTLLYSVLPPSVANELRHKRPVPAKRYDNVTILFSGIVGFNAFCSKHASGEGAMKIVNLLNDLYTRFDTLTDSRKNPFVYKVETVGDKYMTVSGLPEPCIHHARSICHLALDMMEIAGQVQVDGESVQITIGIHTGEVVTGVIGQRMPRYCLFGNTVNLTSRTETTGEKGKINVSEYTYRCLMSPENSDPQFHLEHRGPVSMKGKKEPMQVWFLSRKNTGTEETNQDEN
Assay: Effect on a recombinant guanylate cyclase reporter cell line
Type: cell-based
Settings: MEC = minimum effective concentration; in some cases mean values for individual determinations
Protocol: B-2. Effect on a Recombinant Guanylate Cyclase Reporter Cell Line
The cellular effect of the inventive compounds is determined using a recombinant guanylate cyclase reporter cell line, as described in F. Wunder et al., Anal. Biochem. 339, 104-112 (2005).
Representative MEC values (MEC=minimum effective concentration) for the inventive compounds are shown in the table below (in some cases as mean values for individual determinations): […]

Structure (SMILES)	MEC [µM]
CCN(C)Cc1cccc(-c2c(C)nc3c(OCc4c(F)cccc4F)cccn23)c1 [Example 5, N-(3-{8-[(2,6-difluorobenzyl)oxy]-2-methylimidazo[1,2-a]pyridin-3-yl}benzyl)-N-methylethanamine]	0.2
Cc1cc(OCc2c(F)cccc2F)c2nc(C)c(-c3cncc(C(=O)NC4CC4)c3)n2c1 [Example 78, N-Cyclopropyl-5-{8-[(2,6-difluorobenzyl)oxy]-2,6-dimethylimidazo[1,2-a]pyridin-3-yl}nicotinamide trifluoroacetate]	0.1
CCCOc1ccc(-c2c(C)nc3c(OCc4c(F)cccc4F)cccn23)cn1 [Example 22, 8-[(2,6-difluorobenzyl)oxy]-2-methyl-3-(6-propoxypyridin-3-yl)imidazo[1,2-a]pyridine]	1.0
Cc1nc2c(OCc3c(F)cccc3F)cccn2c1-c1ccc2c(c1)OCCO2 [Example 37, 8-[(2,6-difluorobenzyl)oxy]-3-(2,3-dihydro-1,4-benzodioxin-6-yl)-2-methylimidazo[1,2-a]pyridine]	3.0
Cc1cc(OCc2c(F)cccc2F)c2nc(C)c(-c3nnc(CC(C)(C)N)s3)n2c1.O=CO [Example 133, 1-(5-{8-[(2,6-Difluorobenzyl)oxy]-2,6-dimethylimidazo[1,2-a]pyridin-3-yl}-1,3,4-thiadiazol-2-yl)-2-methylpropan-2-amine formate]	0.3
Cc1nc2c(OCc3c(F)cccc3F)cccn2c1-c1cccc(CN2CCCCC2)c1 [Example 42, 8-[(2,6-difluorobenzyl)oxy]-2-methyl-3-[3-(piperidin-1-ylmethyl)phenyl]imidazo[1,2-a]pyridine]	3.0
Cc1nc2c(OCc3c(F)cccc3F)cccn2c1-c1cccc(CN2CCCC2)c1 [Example 15, 8-[(2,6-difluorobenzyl)oxy]-2-methyl-3-[3-(pyrrolidin-1-ylmethyl)phenyl]imidazo[1,2-a]pyridine]	0.065
Cc1cc(OCc2c(F)cccc2F)c2nc(C)c(-c3cnn(CCO)c3)n2c1 [Example 91, 2-(4-{8-[(2,6-difluorobenzyl)oxy]-2,6-dimethylimidazo[1,2-a]pyridin-3-yl}-1H-pyrazol-1-yl)ethanol]	0.1
Cc1cc(OCc2c(F)cccc2F)c2nc(C)c(-c3cnn(CC(C)(C)N)c3)n2c1 [Example 89, 1-(4-{8-[(2,6-Difluorobenzyl)oxy]-2,6-dimethylimidazo[1,2-a]pyridin-3-yl}-1H-pyrazol-1-yl)-2-methylpropan-2-amine]	0.03
Cc1nc2c(OCc3c(F)cccc3F)cccn2c1-c1cnn(C(C)C)c1 [Example 52]	0.3
Cc1nc2c(OCc3c(F)cccc3F)cccn2c1-c1ccsc1 [Example 14, 8-[(2,6-difluorobenzyl)oxy]-2-methyl-3-(3-thienyl)imidazo[1,2-a]pyridine]	0.3
CCS(=O)(=O)c1cccc(-c2c(C)nc3c(OCc4c(F)cccc4F)cccn23)c1 [Example 6, 8-[(2,6-difluorobenzyl)oxy]-3-[3-(ethylsulphonyl)phenyl]-2-methylimidazo[1,2-a]pyridine]	0.1
Cc1cc(OCc2c(F)cccc2F)c2nc(C)c(-c3cccnc3)n2c1 [Example 140, 8-[(2,6-Difluorobenzyl)oxy]-2,6-dimethyl-3-(pyridin-3-yl)imidazo[1,2-a]pyridine]	0.1
Cc1nc2c(OCc3c(F)cccc3F)cccn2c1-c1cnn(-c2cccnc2)c1 [Example 121]	1.0
CC(=O)c1cccc(-c2c(C)nc3c(OCc4c(F)cccc4F)cccn23)c1 [Example 2, 1-(3-{8-[(2,6-difluorobenzyl)oxy]-2-methylimidazo[1,2-a]pyridin-3-yl}phenyl)ethanone]	0.1
Cc1cc(OCc2c(F)cccc2F)c2nc(C)c(-c3cnn(CCOC(N)=O)c3)n2c1 [Example 97, 2-(4-{8-[(2,6-Difluorobenzyl)oxy]-2,6-dimethylimidazo[1,2-a]pyridin-3-yl}-1H-pyrazol-1-yl)ethyl carbamate]	0.3
Cc1nc2c(OCc3c(F)cccc3F)cccn2c1-c1cn[nH]c1 [Example 45, 8-[(2,6-difluorobenzyl)oxy]-2-methyl-3-(1H-pyrazol-4-yl)imidazo[1,2-a]pyridine]	0.1
CCN(C)Cc1ccc(OC)c(-c2c(C)nc3c(OCc4c(F)cccc4F)cccn23)c1 [Example 28, N-(3-{8-[(2,6-difluorobenzyl)oxy]-2-methylimidazo[1,2-a]pyridin-3-yl}-4-methoxybenzyl)-N-methylethanamine]	1.0
CCOCc1nnc(-c2c(C)nc3c(OCC4CCCCC4)cccn23)o1 [Example 66]	3.0
Cc1nc2c(OCc3c(F)cccc3F)cccn2c1-c1nc(N)n(CC(F)(F)F)n1 [Example 125, 3-{8-[(2,6-Difluorobenzyl)oxy]-2-methylimidazo[1,2-a]pyridin-3-yl}-1-(2,2,2-trifluoroethyl)-1H-1,2,4-triazol-5-amine]	3.0
Cc1cc(OCc2c(F)cccc2F)c2nc(C)c(-c3cc(CO)no3)n2c1 [Example 142, (5-{8-[(2,6-Difluorobenzyl)oxy]-2,6-dimethylimidazo[1,2-a]pyridin-3-yl}-1,2-oxazol-3-yl)methanol]	0.1
COC(=O)C(C)n1cc(-c2c(C)nc3c(OCc4c(F)cccc4F)cc(C)cn23)cn1 (centres unmarked) [Example 104]	0.3
Cc1ccc(-c2c(C)nc3c(OCc4c(F)cccc4F)cc(C)cn23)cc1 [Example 135, 8-[(2,6-Difluorobenzyl)oxy]-2,6-dimethyl-3-(4-methylphenyl)imidazo[1,2-a]pyridine]	3.0
Cc1cc(OCc2c(F)cccc2F)c2nc(C)c(-c3nc(CC(C)(C)N)no3)n2c1.O=CO [Example 132, 1-(5-{8-[(2,6-Difluorobenzyl)oxy]-2,6-dimethylimidazo[1,2-a]pyridin-3-yl}-1,2,4-oxadiazol-3-yl)-2-methylpropan-2-amine formate]	0.3
Cc1nc2c(OCc3c(F)cccc3F)cccn2c1-c1cccc(CN2CCOCC2)c1 [Example 21, 8-[(2,6-difluorobenzyl)oxy]-2-methyl-3-[3-(morpholin-4-ylmethyl)phenyl]imidazo[1,2-a]pyridine]	1.0
Cc1cc(OCc2c(F)cccc2F)c2nc(C)c(-c3noc(CC(C)(C)N)n3)n2c1 [Example 131, 1-(3-{8-[(2,6-Difluorobenzyl)oxy]-2,6-dimethylimidazo[1,2-a]pyridin-3-yl}-1,2,4-oxadiazol-5-yl)-2-methylpropan-2-amine]	1.0
Cc1cc(OCc2c(F)cccc2F)c2nc(C)c(-c3nc[nH]n3)n2c1 [Example 128, 8-[(2,6-Difluorobenzyl)oxy]-2,6-dimethyl-3-(1H-1,2,4-triazol-3-yl)imidazo[1,2-a]pyridine]	1.0
Cc1cc(OCc2ncccc2F)c2nc(C)c(-c3cnn(CC(C)(C)N)c3)n2c1 [Example 85, 1-(4-{8-[(3-Fluoropyridin-2-yl)methoxy]-2,6-dimethylimidazo[1,2-a]pyridin-3-yl}-1H-pyrazol-1-yl)-2-methylpropan-2-amine]	3.0
COc1ccc(-c2c(C)nc3c(OCc4c(F)cccc4F)cccn23)cc1 [Example 25, 8-[(2,6-difluorobenzyl)oxy]-3-(4-methoxyphenyl)-2-methylimidazo[1,2-a]pyridine]	1.0
